Earlier results on two molecules are cited in US20110212474A1, “ABNORMAL ALTERATIONS OF PKC ISOZYMES PROCESSING IN ALZHEIMER'S DISEASE PERIPHERAL CELLS” (BLANCHETTE ROCKEFELLER NEUROSCIENCES INSTITUTE, priority 2009, published 2011).

The test system of one series is Aβ (1-42). To be noted: transgenic mice with human AD genes.
A further series deals with PKC. To be noted: postischemic/hypoxic treatment.
A further series relates to PKC-α. As to conditions: non-AD (AC) fibroblasts, nanomolar concentrations of Aβ (1-40).
Another series has as its system PKC-γ. To be noted: AD fibroblasts, Aβ (1-40).

As to `CCC/C=C/C=C/C(=O)O[C@H]1/C(=C/C(=O)OC)C[C@H]2C[C@H]([C@@H](C)O)OC(=O)C[C@H](O)C[C@@H]3C[C@H](OC(C)=O)C(C)(C)[C@](O)(C[C@@H]4C/C(=C/C(=O)OC)C[C@H](/C=C/C(C)(C)[C@]1(O)O2)O4)O3` [bryostatin-1], the “effect on Aβ (1-42) levels in the brains” value in the series with Aβ (1-42) is reported as “reduce Aβ (1-42) levels”. In addition, in the series on PKC, the “effect on ischemia-induced deficits in synaptogenesis, neurotrophic activity, and spatial learning and memory” value is recorded as “effectively rescued ischemia-induced deficits”.

Consider “Aβ (1-40): Aβ peptide, "short form," 40 amino acids in length, from Amyloid Precursor Protein”, for which the “decrease in PKC-α immunoreactivity” value with PKC-α is given as 75%. Besides, the “reduction of PKC-γ immunoreactivity” value with PKC-γ is on record as 70%.
